Data taken from US20180171411A1, “GFRalpha1 AS A BIOMARKER FOR CISPLATIN-INDUCED CHEMORESISTANCE AND METASTASIS” (THE BOARD OF REGENTS OF THE UNIVERSITY OF TEXAS SYSTEM, priority 2015, published 2018).

Tested on: GFRα1-deficient MG-63 and U-2 OS cells
Test: WST-1 cell viability of GFRα1-deficient (siRNA) osteosarcoma cells
Format: cell-based, human
Details: GFRα1 siRNA 48 h, then agent 24 h
Experimental: FIG. 6. Cell viability of GFRα1-deficient osteosarcoma cells after treatment of chemotherapeutic agents. MG-63 and U-2 OS cells were transfected with either control siRNA or GFRα1 siRNA for 48 h and then treated with different concentrations of doxorubicin, cisplatin, or methotrexate for 24 h. Cell viability was measured using the WST-1 assay. The values are represented as a mean±s.d.m. (n=3). ** denotes P<0.05 by t-test. (a) MG-63 cells. (b) U-2 OS cells.
Small interfering RNA (siRNA)-based Experiments. Human GFRα1 siRNA, Beclin 1 siRNA, HMGB1 siRNA, AMPK siRNA, c-Src siRNA, NFκB p50 siRNA, APE siRNA and Negative (control) siRNA were purchased from Santa Cruz Biotechnology. Cell lines were transiently transfected with siRNA duplexes using Lipofectamine® RNAiMAX (Life Technologies) according to manufacturer's instructions.
Cell viability assays. WST-1 cell viability assay reagent was purchased from Roche. Equal numbers of cells were seeded in triplicate wells in 48-well plates and maintained in growth medium containing 10% FBS). Cells were cultured with PBS, GDNF (50 ng/mL), GDNF (50 ng/ml)+cisplatin (20 μM), or cisplatin (20 μM) in the presence of serum for 24 hr. Cells were also preincubated with inhibitors (3-MA, PP1, Compound C, Baf and CQ) for 1 hr before stimulating with PBS, GDNF, GDNF+cisplatin, or cisplatin. WST-1 reagent was then treated to the cells at the indicated times and incubated for 2 hr at 37° C. Cell viability was determined by measuring the absorbance after adding WST-1. The spectrophotometric absorbance of the samples was measured using an Ultra Multifunctional Microplate Reader (Tecan, Durham, N.C.) at 450 nm. Experiments were done at least in triplicate using separate cultures.

With `N.N.[Cl][Pt][Cl]` [cisplatin, Cis-Diamineplatinum(II) dichloride] the “cell proliferation of GFRα1-deficient cells compared to control cells” value was “significantly reduced”.
